Like-named read-outs stand apart in the source and are kept apart here.
Key:
EGFR del19/T790M/C797S = EGFR del19/T790M/C797S (Homo sapiens, UniProt P00533, C797S/DEL746-750/T790M); test: Biochemical EGFR kinase assay (Lance Ultra TR-FRET), triple mutant del19/T790M/C797S
Summary of the method: (§1)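 Step 1: compound in kinase buffer, 0.003–10 μM. Step 2: kinase reaction 1 h at room temperature. Step 4: TR-FRET read at 615/665 nm; IC50 calculated.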

EGFR L858R/T790M/C797S = EGFR L858R/T790M/C797S (Homo sapiens, UniProt P00533, C797S/L858R/T790M); test: Biochemical EGFR kinase assay (Lance Ultra TR-FRET), triple mutant L858R/T790M/C797S
Summary of the method: as §1

EGFR del19/C797S = EGFR del19/C797S (Homo sapiens, UniProt P00533, C797S/DEL746-750); test: Biochemical EGFR kinase assay (Lance Ultra TR-FRET), double mutant del19/C797S
Summary of the method: as §1

EGFR L858R/C797S = EGFR L858R/C797S (Homo sapiens, UniProt P00533, C797S/L858R); test: Biochemical EGFR kinase assay (Lance Ultra TR-FRET), double mutant L858R/C797S
Summary of the method: as §1

EGFR wildtype (WT) = EGFR wildtype (WT) (Homo sapiens, UniProt P00533); test: Biochemical EGFR kinase assay (Lance Ultra TR-FRET), wildtype
Summary of the method: as §1

[1] = IC50 del19/T790M/C797S (nM) 100 μM ATP, 100 μM ATP
[2] = Km ATP, read-out: IC50 del19/T790M/C797S (nM) Km ATP
[3] = IC50 L858R/T790M/C797S (nM) 100 μM ATP, 100 μM ATP
[4] = Km ATP, read-out: IC50 L858R/T790M/C797S (nM) Km ATP
[5] = IC50 del19/C797S (nM) 100 μM ATP, 100 μM ATP
[6] = Km ATP, read-out: IC50 del19/C797S (nM) Km ATP
[7] = IC50 L858R/C797S (nM) 100 μM ATP, 100 μM ATP
[8] = Km ATP, read-out: IC50 L858R/C797S (nM) Km ATP
[9] = IC50 WT (nM) 100 μM ATP, 100 μM ATP
[10] = Km ATP, read-out: IC50 WT (nM) Km ATP
[11] = Km ATP, read-out: IC50 del19/T790M/C797S, Km ATP
[12] = Km ATP, read-out: IC50 L858R/T790M/C797S, Km ATP
[13] = Km ATP, read-out: IC50 del19/C797S, Km ATP
[14] = Km ATP, read-out: IC50 L858R/C797S, Km ATP
[15] = Km ATP, read-out: IC50 WT, Km ATP

Sequence of EGFR del19/T790M/C797S (P00533 with tags, fused parts or gaps DEL746-750/T790M/C797S): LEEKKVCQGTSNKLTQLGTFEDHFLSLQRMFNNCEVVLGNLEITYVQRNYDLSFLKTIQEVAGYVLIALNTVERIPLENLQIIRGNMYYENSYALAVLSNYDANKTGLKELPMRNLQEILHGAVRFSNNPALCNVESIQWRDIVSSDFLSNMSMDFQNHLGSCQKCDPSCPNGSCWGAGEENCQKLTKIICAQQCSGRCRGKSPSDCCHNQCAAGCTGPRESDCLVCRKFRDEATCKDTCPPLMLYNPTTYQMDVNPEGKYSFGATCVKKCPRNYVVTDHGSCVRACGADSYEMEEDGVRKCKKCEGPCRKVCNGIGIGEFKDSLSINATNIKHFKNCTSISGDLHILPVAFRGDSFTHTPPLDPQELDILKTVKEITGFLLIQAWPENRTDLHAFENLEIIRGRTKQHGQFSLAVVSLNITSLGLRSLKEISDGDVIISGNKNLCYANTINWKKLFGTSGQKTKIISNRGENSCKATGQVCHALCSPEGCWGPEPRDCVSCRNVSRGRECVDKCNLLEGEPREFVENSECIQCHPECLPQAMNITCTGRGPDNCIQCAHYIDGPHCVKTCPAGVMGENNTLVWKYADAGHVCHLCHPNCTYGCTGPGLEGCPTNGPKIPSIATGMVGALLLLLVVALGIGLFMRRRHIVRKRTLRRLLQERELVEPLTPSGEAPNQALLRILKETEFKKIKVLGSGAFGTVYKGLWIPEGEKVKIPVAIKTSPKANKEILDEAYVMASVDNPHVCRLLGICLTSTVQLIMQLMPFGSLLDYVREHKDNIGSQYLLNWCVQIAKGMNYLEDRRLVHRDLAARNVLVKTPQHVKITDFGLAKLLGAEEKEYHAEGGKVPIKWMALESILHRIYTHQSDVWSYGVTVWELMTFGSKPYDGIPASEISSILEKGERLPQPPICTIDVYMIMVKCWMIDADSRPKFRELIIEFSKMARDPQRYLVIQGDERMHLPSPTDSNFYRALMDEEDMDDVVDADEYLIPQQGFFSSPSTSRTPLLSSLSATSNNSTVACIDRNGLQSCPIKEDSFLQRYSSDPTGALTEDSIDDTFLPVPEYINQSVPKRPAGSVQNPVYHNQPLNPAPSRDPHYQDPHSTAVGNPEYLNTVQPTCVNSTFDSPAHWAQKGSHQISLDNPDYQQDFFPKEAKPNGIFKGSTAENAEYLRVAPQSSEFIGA
Sequence of EGFR wildtype (WT) (P00533 25-1210): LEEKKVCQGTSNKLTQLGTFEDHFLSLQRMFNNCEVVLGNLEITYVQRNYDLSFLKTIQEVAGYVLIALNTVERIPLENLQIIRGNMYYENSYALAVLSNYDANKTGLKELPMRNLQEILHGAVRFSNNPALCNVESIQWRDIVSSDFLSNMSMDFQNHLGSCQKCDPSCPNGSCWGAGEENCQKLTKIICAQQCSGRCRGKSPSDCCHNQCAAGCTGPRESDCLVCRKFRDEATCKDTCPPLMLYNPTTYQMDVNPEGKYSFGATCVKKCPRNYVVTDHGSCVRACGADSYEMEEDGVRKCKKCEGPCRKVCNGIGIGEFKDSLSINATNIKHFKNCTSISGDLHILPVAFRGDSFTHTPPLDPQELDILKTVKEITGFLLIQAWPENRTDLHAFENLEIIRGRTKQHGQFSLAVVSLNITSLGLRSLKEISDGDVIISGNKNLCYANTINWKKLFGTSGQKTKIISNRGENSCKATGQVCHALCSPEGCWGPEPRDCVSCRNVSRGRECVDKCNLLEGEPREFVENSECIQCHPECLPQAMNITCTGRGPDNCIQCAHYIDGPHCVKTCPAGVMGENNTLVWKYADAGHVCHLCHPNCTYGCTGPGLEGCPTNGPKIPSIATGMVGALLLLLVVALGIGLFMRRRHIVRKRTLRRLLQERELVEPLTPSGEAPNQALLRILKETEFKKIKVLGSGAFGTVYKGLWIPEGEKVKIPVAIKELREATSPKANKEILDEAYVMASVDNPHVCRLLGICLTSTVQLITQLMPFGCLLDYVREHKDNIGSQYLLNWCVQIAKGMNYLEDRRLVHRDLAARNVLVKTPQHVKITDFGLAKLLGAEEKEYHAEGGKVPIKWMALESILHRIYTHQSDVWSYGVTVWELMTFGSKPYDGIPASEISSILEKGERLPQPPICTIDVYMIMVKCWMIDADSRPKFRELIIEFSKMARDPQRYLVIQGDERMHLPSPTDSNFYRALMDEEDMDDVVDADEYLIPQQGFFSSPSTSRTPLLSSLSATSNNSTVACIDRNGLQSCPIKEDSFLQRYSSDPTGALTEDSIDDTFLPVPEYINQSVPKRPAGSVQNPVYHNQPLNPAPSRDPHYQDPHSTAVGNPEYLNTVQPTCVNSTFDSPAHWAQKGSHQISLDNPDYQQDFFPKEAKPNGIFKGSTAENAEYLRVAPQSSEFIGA
Sequence of EGFR L858R/T790M/C797S (P00533 25-1210 T790M/C797S/L858R): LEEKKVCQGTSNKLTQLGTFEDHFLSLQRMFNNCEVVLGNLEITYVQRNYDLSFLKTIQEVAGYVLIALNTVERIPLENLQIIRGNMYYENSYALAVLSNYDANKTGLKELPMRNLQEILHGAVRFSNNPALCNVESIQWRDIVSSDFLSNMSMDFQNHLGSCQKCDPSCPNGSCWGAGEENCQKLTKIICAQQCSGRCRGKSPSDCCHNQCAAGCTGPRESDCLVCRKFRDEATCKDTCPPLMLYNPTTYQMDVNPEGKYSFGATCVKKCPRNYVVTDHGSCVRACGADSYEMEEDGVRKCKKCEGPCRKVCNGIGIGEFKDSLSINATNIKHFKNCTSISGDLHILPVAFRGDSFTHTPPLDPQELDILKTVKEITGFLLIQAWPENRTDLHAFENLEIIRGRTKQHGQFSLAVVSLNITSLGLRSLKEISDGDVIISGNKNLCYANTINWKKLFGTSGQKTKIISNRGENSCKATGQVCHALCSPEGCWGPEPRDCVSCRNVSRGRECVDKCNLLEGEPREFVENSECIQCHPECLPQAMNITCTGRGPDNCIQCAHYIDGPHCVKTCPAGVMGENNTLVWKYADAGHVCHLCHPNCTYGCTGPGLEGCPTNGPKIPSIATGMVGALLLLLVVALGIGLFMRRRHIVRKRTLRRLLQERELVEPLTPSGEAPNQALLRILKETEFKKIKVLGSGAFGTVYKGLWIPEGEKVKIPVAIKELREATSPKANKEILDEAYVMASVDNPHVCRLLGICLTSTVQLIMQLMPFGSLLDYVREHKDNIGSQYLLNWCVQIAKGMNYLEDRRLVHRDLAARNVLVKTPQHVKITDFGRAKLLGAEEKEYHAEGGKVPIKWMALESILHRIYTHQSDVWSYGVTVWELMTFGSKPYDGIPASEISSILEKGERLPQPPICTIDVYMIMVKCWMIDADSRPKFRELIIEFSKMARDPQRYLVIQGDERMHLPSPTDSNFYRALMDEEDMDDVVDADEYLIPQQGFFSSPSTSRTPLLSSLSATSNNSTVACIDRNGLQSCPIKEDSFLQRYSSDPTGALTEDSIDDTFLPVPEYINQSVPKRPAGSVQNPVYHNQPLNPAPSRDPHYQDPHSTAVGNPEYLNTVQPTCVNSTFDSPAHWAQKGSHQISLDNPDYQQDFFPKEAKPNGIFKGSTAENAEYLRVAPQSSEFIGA
Sequence of EGFR del19/C797S (P00533 with tags, fused parts or gaps DEL746-750/C797S): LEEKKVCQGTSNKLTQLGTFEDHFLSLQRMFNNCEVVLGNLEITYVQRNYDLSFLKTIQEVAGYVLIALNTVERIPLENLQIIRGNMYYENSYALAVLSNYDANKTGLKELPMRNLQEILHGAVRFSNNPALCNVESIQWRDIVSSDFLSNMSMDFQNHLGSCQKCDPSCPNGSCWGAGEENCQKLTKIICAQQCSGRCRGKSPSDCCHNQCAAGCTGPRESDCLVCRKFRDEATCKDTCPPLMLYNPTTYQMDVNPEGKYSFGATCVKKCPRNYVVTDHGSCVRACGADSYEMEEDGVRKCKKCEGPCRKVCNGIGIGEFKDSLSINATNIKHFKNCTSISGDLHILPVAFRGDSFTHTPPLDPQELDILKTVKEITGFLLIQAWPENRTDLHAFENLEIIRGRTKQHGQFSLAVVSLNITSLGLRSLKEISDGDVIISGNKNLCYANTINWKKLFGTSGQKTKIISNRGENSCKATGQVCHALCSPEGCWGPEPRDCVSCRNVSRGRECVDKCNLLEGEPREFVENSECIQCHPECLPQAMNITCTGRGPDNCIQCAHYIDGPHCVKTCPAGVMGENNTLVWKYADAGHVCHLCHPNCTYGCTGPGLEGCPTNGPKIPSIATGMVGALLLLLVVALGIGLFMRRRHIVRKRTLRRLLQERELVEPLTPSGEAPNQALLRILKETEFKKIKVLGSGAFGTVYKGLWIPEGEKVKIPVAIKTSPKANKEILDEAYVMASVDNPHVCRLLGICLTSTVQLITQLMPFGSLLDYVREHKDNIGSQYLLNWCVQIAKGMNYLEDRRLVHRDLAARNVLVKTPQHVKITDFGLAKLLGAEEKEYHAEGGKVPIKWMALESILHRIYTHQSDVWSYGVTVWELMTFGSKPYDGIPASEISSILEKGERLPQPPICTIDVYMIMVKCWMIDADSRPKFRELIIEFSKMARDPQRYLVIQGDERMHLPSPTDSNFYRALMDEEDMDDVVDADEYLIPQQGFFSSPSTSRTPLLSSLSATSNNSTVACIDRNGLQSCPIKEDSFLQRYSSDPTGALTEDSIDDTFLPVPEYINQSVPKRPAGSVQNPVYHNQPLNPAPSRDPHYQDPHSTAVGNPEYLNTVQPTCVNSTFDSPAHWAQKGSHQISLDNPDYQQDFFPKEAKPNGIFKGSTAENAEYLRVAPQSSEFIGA

Row | Structure (SMILES) | IC50 (EGFR del19/T790M/C797S; [1]) [nM] | IC50 (EGFR del19/T790M/C797S; [2]) [nM] | IC50 (EGFR L858R/T790M/C797S; [3]) [nM] | IC50 (EGFR L858R/T790M/C797S; [4]) [nM] | IC50 (EGFR del19/C797S; [5]) [nM] | IC50 (EGFR del19/C797S; [6]) [nM] | IC50 (EGFR L858R/C797S; [7]) [nM] | IC50 (EGFR L858R/C797S; [8]) [nM] | IC50 (EGFR wildtype (WT); [9]) [nM] | IC50 (EGFR wildtype (WT); [10]) [nM] | IC50 (EGFR del19/T790M/C797S; [11]) [nM] | IC50 (EGFR L858R/T790M/C797S; [12]) [nM] | IC50 (EGFR del19/C797S; [13]) [nM] | IC50 (EGFR L858R/C797S; [14]) [nM] | IC50 (EGFR wildtype (WT); [15]) [nM]
1 | Cn1ccc(-c2cnc(Nc3ccnc(-c4cnn(S(=O)(=O)C5CC5)c4)n3)cc2N[C@H]2CC[C@H](CCO)CC2)n1 [Example 134, 2-((1r,4r)-4-((2-((2-(1-(Cyclopropylsulfonyl)-1H-pyrazol-4-yl)pyrimidin-4-yl)amino)-5-(1-methyl-1H-pyrazol-3-yl)pyridin-4-yl)amino)cyclohexyl)ethan-1-ol] | 0.5 | 0.2 | 0.5 | 0.1 | 0.8 | 0.6 | 9.2 | 0.4 | > 10000 | 4.4 | – | – | – | – | –
2 | CC(C)(O)[C@H]1CC[C@@H](Nc2cc(Nc3ccnc(-c4cnn(CC(F)F)c4)n3)ncc2-c2ccn(C(F)F)n2)CC1 [Example 148, 2-((1s,4s)-4-((2-((2-(1-(2,2-Difluoroethyl)-1H-pyrazol-4-yl)pyrimidin-4-yl)amino)-5-(1-(difluoromethyl)-1H-pyrazol-3-yl)pyridin-4-yl)amino)cyclohexyl)propan-2-ol] | – | 1.4 | – | 1.7 | – | 75.5 | – | 27 | – | 128 | – | – | – | – | –
3 | C[C@]1(O)CC[C@@H](Nc2cc(Nc3ccnc(-c4ccc(F)nc4)n3)ncc2-c2ccn(C(F)F)n2)CC1 [Example 113, (1s,4s)-4-((5-(1-(Difluoromethyl)-1H-pyrazol-3-yl)-2-((2-(6-fluoropyridin-3-yl)pyrimidin-4-yl)amino)pyridin-4-yl)amino)-1-methylcyclohexan-1-ol] | 17.5 | – | 186 | – | 606 | – | 483 | – | > 10000 | > 10000 | – | – | – | – | –
4 | O=S(=O)(C1CC1)n1cc(-c2nccc(Nc3cc(OC4CCC(O)C4)c(-c4cnn(C(F)F)c4)cn3)n2)cn1 (stereo not drawn) [Example 72, 3-((2-((2-(1-(Cyclopropylsulfonyl)-1H-pyrazol-4-yl)pyrimidin-4-yl)amino)-5-(1-(difluoromethyl)-1H-pyrazol-4-yl)pyridin-4-yl)oxy)cyclopentan-1-ol] | 0.8 | 0.9 | 5.8 | 0.8 | 21.8 | 31.4 | 189 | 9.4 | > 10000 | 199 | – | – | – | – | –
5 | C[C@]1(O)CC[C@@H](Nc2cc(Nc3ccnc(-c4cnn(C(F)F)c4)n3)ncc2-c2ccn(C(F)F)n2)CC1 [Example 149, (1s,4s)-4-((5-(1-(Difluoromethyl)-1H-pyrazol-3-yl)-2-((2-(1-(difluoromethyl)-1H-pyrazol-4-yl)pyrimidin-4-yl)amino)pyridin-4-yl)amino)-1-methylcyclohexan-1-ol] | – | 2.7 | – | 2.7 | – | 144 | – | 47.2 | – | 1730 | – | – | – | – | –
6 | O=S(=O)(C1CC1)n1cc(-c2nccc(Nc3cc(N[C@H]4CC[C@H](CO)OC4)c(-c4ccn(C(F)F)n4)cn3)n2)cn1 [Example 196, ((2R,5S)-5-((2-((2-(1-(Cyclopropylsulfonyl)-1H-pyrazol-4-yl)pyrimidin-4-yl)amino)-5-(1-(difluoromethyl)-1H-pyrazol-3-yl)pyridin-4-yl)amino)tetrahydro-2H-pyran-2-yl)methanol] | 3.7 | – | 13.3 | – | 131 | – | 9100 | – | > 10000 | – | – | – | – | – | –
7 | O=S(=O)(C1CC1)n1cc(-c2nccc(Nc3cc(N[C@H]4CCC[C@H](O)C4)c(-c4ccn(C(F)F)n4)cn3)n2)cn1 [Example 21, (1S,3S)-3-((2-((2-(1-(Cyclopropylsulfonyl)-1H-pyrazol-4-yl)pyrimidin-4-yl)amino)-5-(1-(difluoromethyl)-1H-pyrazol-3-yl)pyridin-4-yl)amino)cyclohexan-1-ol] | 1.3 | 0.3 | 0.9 | 0.2 | 0.7 | 0.3 | 8.9 | 0.9 | 5010 | 5.4 | – | – | – | – | –
8 | CC1(C)CC(Nc2cc(Nc3ccnc(-c4cnn(S(=O)(=O)C5CC5)c4)n3)ncc2-c2ccn(C(F)F)n2)CCC1O (stereo not drawn) [Example 106, 4-((2-((2-(1-(Cyclopropylsulfonyl)-1H-pyrazol-4-yl)pyrimidin-4-yl)amino)-5-(1-(difluoromethyl)-1H-pyrazol-3-yl)pyridin-4-yl)amino)-2,2-dimethylcyclohexan-1-ol] | 3.9 | 3.9 | 2.6 | – | 22.7 | 19.6 | 453 | 19 | 9960 | 46.9 | – | – | – | – | –
9 | COCn1ccc(-c2cnc(Nc3ccnc(-c4cnn(S(=O)(=O)C5CC5)c4)c3)nc2N[C@H]2CC[C@@](C)(O)CC2)n1 [Example 358, (1s,4s)-4-((2-((2-(1-(Cyclopropylsulfonyl)-1H-pyrazol-4-yl)pyridin-4-yl)amino)-5-(1-(methoxymethyl)-1H-pyrazol-3-yl)pyrimidin-4-yl)amino)-1-methylcyclohexan-1-ol] | – | – | – | – | – | – | – | – | – | – | 0.2 | 0.3 | 2.3 | 3.7 | 39.6
10 | Cn1nc(-c2cnc(Nc3ccnc(-c4cnn(S(=O)(=O)C5CC5)c4)c3)nc2N[C@H]2CC[C@@H](F)CC2)cc1C(F)(F)F [Example 371, N^2-(2-(1-(Cyclopropylsulfonyl)-1H-pyrazol-4-yl)pyridin-4-yl)-N^4-((1s,4s)-4-fluorocyclohexyl)-5-(1-methyl-5-(trifluoromethyl)-1H-pyrazol-3-yl)pyrimidine-2,4-diamine] | – | – | – | – | – | – | – | – | – | – | 0.9 | 1.8 | 38.9 | 91 | 1980
11 | CN(C)C[C@H]1C[C@H](CNc2cc(Nc3ccnc(-c4cnn(S(=O)(=O)C5CC5)c4)n3)ncc2-c2ccn(C(F)F)n2)C1 [Example 209, N^2-(2-(1-(Cyclopropylsulfonyl)-1H-pyrazol-4-yl)pyrimidin-4-yl)-5-(1-(difluoromethyl)-1H-pyrazol-3-yl)-N^4-(((1r,3r)-3-((dimethylamino)methyl)cyclobutyl)methyl)pyridine-2,4-diamine] | – | 0.3 | – | 0.1 | – | 6.4 | – | 4.8 | – | 13.1 | – | – | – | – | –
12 | O=S(=O)(C1CC1)n1cc(-c2nccc(Nc3cc(N[C@H]4CC[C@](O)(CO)CC4)c(-c4cc5n(n4)CCCC5)cn3)n2)cn1 [Example 275, (1s,4s)-4-((2-((2-(1-(Cyclopropylsulfonyl)-1H-pyrazol-4-yl)pyrimidin-4-yl)amino)-5-(4,5,6,7-tetrahydropyrazolo[1,5-a]pyridin-2-yl)pyridin-4-yl)amino)-1-(hydroxymethyl)cyclohexan-1-ol] | 0.6 | 0.4 | 0.5 | 0.2 | 0.6 | 0.4 | 4.7 | 0.4 | 2940 | 1.8 | – | – | – | – | –
13 | Cc1nn(CC(F)(F)F)cc1-c1cc(Nc2ncc(-c3ccn(CC(F)(F)F)n3)c(N[C@H]3CC[C@@](C)(O)CC3)n2)ccn1 [Example 370, (1s,4s)-1-Methyl-4-((2-((2-(3-methyl-1-(2,2,2-trifluoroethyl)-1H-pyrazol-4-yl)pyridin-4-yl)amino)-5-(1-(2,2,2-trifluoroethyl)-1H-pyrazol-3-yl)pyrimidin-4-yl)amino)cyclohexan-1-ol] | – | – | – | – | – | – | – | – | – | – | 3.4 | 1.2 | 17.4 | 8.3 | 147
14 | O=S(=O)(C1CC1)n1cc(-c2nccc(Nc3cc(N[C@H]4CC[C@@H](CN5CCC5)CC4)c(-c4ccn(CC(F)(F)F)n4)cn3)n2)cn1 [Example 272, N^4-((1s,4s)-4-(Azetidin-1-ylmethyl)cyclohexyl)-N^2-(2-(1-(cyclopropylsulfonyl)-1H-pyrazol-4-yl)pyrimidin-4-yl)-5-(1-(2,2,2-trifluoroethyl)-1H-pyrazol-3-yl)pyridine-2,4-diamine] | 0.5 | 0.3 | 0.2 | 0.1 | 0.5 | 23.9 | 1.1 | 0.4 | 325 | 1.4 | – | – | – | – | –
15 | Cc1nn(CC(F)(F)F)cc1-c1nccc(Nc2cc(N[C@H]3CC[C@@](C)(O)CC3)c(-c3ccn(CC(F)F)n3)cn2)n1 [Example 335, (1s,4s)-4-((5-(1-(2,2-Difluoroethyl)-1H-pyrazol-3-yl)-2-((2-(3-methyl-1-(2,2,2-trifluoroethyl)-1H-pyrazol-4-yl)pyrimidin-4-yl)amino)pyridin-4-yl)amino)-1-methylcyclohexan-1-ol] | – | – | – | – | – | – | – | – | – | – | 1.6 | 0.7 | 7.9 | 4.6 | 98.8

Reference: patent US12258327B2, “5-membered heteroaryl-containing aminopyridine compounds as EGFR inhibitors” (YUHAN CORPORATION, priority 2021, dated 2025)
